This experiment relates to PTEN-P2/GFP prostate cancer cells. Nature of the experiment: Effect of 1,4-naphthoquinone analogs on PTEN-P2/GFP cell proliferation (WST-1 cell viability, 24 h). It is filed as cell-based. Particulars: Mus musculus, WST-1, medium with 10% FBS and DHT, read-out: PTEN-P2/GFP cell proliferation, percent of control. Here is the method: Cells are grown in phenol red-free DMEM medium containing 10% FBS, 2 mM L-glutamine, 100 U/ml penicillin/100 μg/ml streptomycin, insulin-selenium-transferrin (5 μg/ml insulin), and DHT 10^−8M final. Androgen withdrawal is achieved by not adding DHT to the medium. Cells are maintained in a humidified incubator at 37° C. and 5% CO2. G418 (100 μg/ml) is added to maintain stable expression of H2B-GFP.
100 microliters of PTEN-P2/GFP prostate cancer cells were plated at a density of 8000 cells/well in 96-well plates (triplicates) in growing medium containing 10% Fetal Bovine Serum and DHT. The next day, increasing concentrations of a 1,4-naphthoquinone analog (diluted from 10 mM DMSO stock solutions) were added. DMSO used as solvent for all analogs, was kept constant through the 96-well plates. The control consisted of DMSO alone. The cells were subsequently incubated for 24 hours at 37° C. and 5% CO2 in normal cell growth conditions. Cell viability was assessed by adding 9 μL/well of WST-1 reagent (Clontech), which measured mitochondrial activity of live cells. […] The incubation time was 3 hours at 37° C. Optical density of the cell samples was measured at 460 nm, by using plate reader Spectra Max 250 (Molecular Devices). The drug was determined to be cytotoxic when OD values show an inverse correlation with analog concentrations. The results are shown in TABLES 3.1-3.4, FIGS. 2A-2E, and FIGS. 3A-3D.

In the case of `COc1cccc2c1C(=O)C=C(C)C2=O` [Analog F47, 5-methoxy-2-methyl-1,4-naphthoquinone], the activity at 1 µM was found to be 105%, the activity at 2 µM is 104%, the activity at 3 µM came to 104% and the activity at 4 µM was found to be 107%. Also, the activity at 5 µM amounted to 105%, the activity at 6 µM is 105%, the activity at 7 µM is 106% and the activity at 10 µM is 109%. In addition, the activity at 25 µM amounted to 78.8% and the activity at 50 µM worked out at 11.1%.

Turning to `COc1ccc(OC)c2c1C(=O)C=CC2=O` [Analog F52, 5,8-dimethoxy-1,4-naphthoquinone], the activity at 1 µM was found to be 106%, the activity at 2 µM was 108%, the activity at 3 µM was 112% and the activity at 4 µM was 113%. For the same molecule, the activity at 5 µM was 111%, the activity at 6 µM was determined as 106%, the activity at 7 µM amounted to 93.3% and the activity at 10 µM was found to be 52.1%. The activity at 25 µM was determined as 11.2% and the activity at 50 µM came out at 11.9%.

Turning to `O=C1C=C(Oc2ccc(O)cc2)C(=O)c2ccccc21` [Analog F10, 2-(4-hydroxyphenoxy)-1,4-naphthoquinone], the activity at 2 µM amounted to 98.6%, the activity at 3 µM is 95.4%, the activity at 4 µM amounted to 91.2% and the activity at 5 µM came out at 82.8%. The activity at 6 µM is 67.1%, the activity at 7 µM turned out to be 53.6%, the activity at 10 µM came to 25.2% and the activity at 15 µM came to 16.7%. Besides, the activity at 25 µM was found to be 17.6%.

Take `COc1ccc(OC2=CC(=O)c3ccccc3C2=O)c(Cl)c1` [Analog F16, 2-(2-chloro-4-methoxyphenoxy)naphthalene-1,4-dione]: the activity at 1.2 µM stood at 92.8%, the activity at 2.5 µM is 97%, the activity at 5 µM came out at 82.5% and the activity at 7.5 µM was 12%. Moreover, the activity at 10 µM came to 0.73%, the activity at 15 µM stood at 1.43% and the activity at 20 µM was 2.3%.

Consider `Cc1cccc(OC2=CC(=O)c3ccccc3C2=O)c1` [Analog F08, 2-(3-methylphenoxy)-1,4-naphthoquinone], for which the activity at 2 µM came out at 102%, the activity at 3 µM worked out at 101%, the activity at 4 µM was 99.4% and the activity at 5 µM is 92.2%. Also, the activity at 6 µM worked out at 83.9%, the activity at 7 µM stood at 68.8%, the activity at 10 µM worked out at 30.8% and the activity at 15 µM came to 12.8%. Moreover, the activity at 25 µM amounted to 9.66%.

In the case of `COC(=O)CSC1=C(C)C(=O)c2cccc(O)c2C1=O` [Analog F46, Methyl 2-((8-hydroxy-3-methyl-1,4-dioxo-1,4-dihydronaphthalen-2-yl)thio)acetate], the activity at 1 µM was 95.4%, the activity at 2 µM is 90.6%, the activity at 3 µM was determined as 84.9% and the activity at 4 µM amounted to 75%. The activity at 5 µM stood at 66.1%, the activity at 6 µM was 60.6%, the activity at 7 µM came to 54.7% and the activity at 10 µM stood at 33%. Besides, the activity at 25 µM was determined as 13% and the activity at 50 µM is 13.6%.

Regarding `O=C1C(Oc2c(F)cc(F)cc2F)=C(Oc2c(F)cc(F)cc2F)C(=O)c2ccccc21` [Analog F22, 2,3-bis(2,4,6-trifluorophenoxy)naphthalene-1,4-dione], the activity at 1.2 µM stood at 91.2%, the activity at 2.5 µM worked out at 103%, the activity at 5 µM amounted to 105% and the activity at 7.5 µM is 107%. For the same molecule, the activity at 10 µM stood at 104%, the activity at 15 µM is 105% and the activity at 20 µM was determined as 101%.

For the molecule `O=C(NCCCl)Oc1ccc(OC2=C(Oc3ccc(OC(=O)NCCCl)cc3)C(=O)c3ccccc3C2=O)cc1` [Analog F34, 2,3-bis(4-((2-chloroethyl)carbamoyloxy)phenoxy)-1,4-naphthoquinone], the activity at 2 µM came to 74.5%, the activity at 3 µM worked out at 49.6%, the activity at 4 µM is 35.8% and the activity at 5 µM worked out at 26%. Also, the activity at 6 µM is 19.3%, the activity at 7 µM stood at 17.2%, the activity at 10 µM came to 14.2% and the activity at 15 µM is 14.2%. Further, the activity at 25 µM worked out at 14.5%.

Turning to `COC(=O)c1ccccc1OC1=C(Br)C(=O)c2ccccc2C1=O` [Analog F19, methyl 3-bromo-1,4-naphthoquinon-2-yl-salicylate], the activity at 2 µM came out at 99.5%, the activity at 3 µM amounted to 94.3%, the activity at 4 µM worked out at 85.2% and the activity at 5 µM amounted to 81%. In addition, the activity at 6 µM is 68.2%, the activity at 7 µM is 59.3%, the activity at 10 µM worked out at 32.3% and the activity at 15 µM came out at 20.1%. For the same molecule, the activity at 25 µM was determined as 12.1%.

Consider `CN(C)CCc1ccc(OC2=CC(=O)c3ccccc3C2=O)cc1` [Analog F11, 2-(4-(2-dimethylaminoethyl)phenoxy)-1,4-naphthoquinone], for which the activity at 2 µM amounted to 99.6%, the activity at 3 µM was 93.4%, the activity at 4 µM came out at 79.2% and the activity at 5 µM was 61.3%. Besides, the activity at 6 µM was 46%, the activity at 7 µM came to 36.4%, the activity at 10 µM was 22.8% and the activity at 15 µM amounted to 12.3%. Further, the activity at 25 µM is 9.33%.

For the molecule `CC(=O)NC1=C(Oc2cc(F)cc(F)c2)C(=O)c2ccccc2C1=O` [Analog F43, N-(3-(3,5-difluorophenoxy)-1,4-dioxo-1,4-dihydronaphthalen-2-yl)acetamide], the activity at 2 µM came out at 94.6%, the activity at 3 µM was 88.7%, the activity at 4 µM was determined as 78.3% and the activity at 5 µM is 68.4%. Further, the activity at 6 µM is 55.3%, the activity at 7 µM was 45.2%, the activity at 10 µM was 32.9% and the activity at 15 µM was determined as 24.7%. Moreover, the activity at 25 µM worked out at 24.1%.

With `CC(=O)NC1=C(Oc2ccccc2)C(=O)c2ccccc2C1=O` [Analog F38, N-(1,4-dioxo-3-phenoxy-1,4-dihydronaphthalen-2-yl)acetamide], the activity at 2 µM came to 95.8%, the activity at 3 µM is 87%, the activity at 4 µM worked out at 71.7% and the activity at 5 µM came to 54%. The activity at 6 µM is 41%, the activity at 7 µM came to 30.7%, the activity at 10 µM stood at 16.6% and the activity at 15 µM worked out at 14.7%. Further, the activity at 25 µM is 14.3%.

Take `CCOC1=CC(=O)c2ccccc2C1=O` [Analog F53, 2-ethoxy-1,4-naphthoquinone]: the activity at 1 µM was determined as 94%, the activity at 2 µM amounted to 91.8%, the activity at 3 µM amounted to 89.9% and the activity at 4 µM is 93.2%. The activity at 5 µM was 93.7%, the activity at 6 µM came to 92.5%, the activity at 7 µM amounted to 93.4% and the activity at 10 µM turned out to be 94.1%. Moreover, the activity at 25 µM amounted to 28.6% and the activity at 50 µM was determined as 12.9%.

Take `O=C1C=C(Oc2ccc(Cl)cc2)C(=O)c2ccccc21` [Analog F14, 2-(4-chlorophenoxy)naphthalene-1,4-dione]: the activity at 1.2 µM amounted to 100%, the activity at 2.5 µM is 92.3%, the activity at 5 µM was 86.2% and the activity at 7.5 µM was 71%. In addition, the activity at 10 µM came to 19.2%, the activity at 15 µM is 1.27% and the activity at 20 µM was found to be 2.3%.

Source of the values: patent US10577315B2, “Compositions and methods for treatment of prostate carcinoma” (Pellficure Pharmaceuticals, Inc., priority 2014, dated 2020).
